Assay results reported in US7858640B2, “Quinolines and their therapeutic use” (Pulmagen Therapeutics (Asthma) Limited, priority 2005, dated 2010).

Each compound was assayed against T1, CRTH2 receptor (Homo sapiens, UniProt Q9Y5Y4) (assay: Radioligand binding assay ([3H]-PGD2 displacement, SPA)). Settings: HEK cell membranes expressing the CRTH2 receptor, 1 nM [3H]-PGD2; Ki from IC50 by Cheng-Prusoff.
T1 sequence (Q9Y5Y4 1-395): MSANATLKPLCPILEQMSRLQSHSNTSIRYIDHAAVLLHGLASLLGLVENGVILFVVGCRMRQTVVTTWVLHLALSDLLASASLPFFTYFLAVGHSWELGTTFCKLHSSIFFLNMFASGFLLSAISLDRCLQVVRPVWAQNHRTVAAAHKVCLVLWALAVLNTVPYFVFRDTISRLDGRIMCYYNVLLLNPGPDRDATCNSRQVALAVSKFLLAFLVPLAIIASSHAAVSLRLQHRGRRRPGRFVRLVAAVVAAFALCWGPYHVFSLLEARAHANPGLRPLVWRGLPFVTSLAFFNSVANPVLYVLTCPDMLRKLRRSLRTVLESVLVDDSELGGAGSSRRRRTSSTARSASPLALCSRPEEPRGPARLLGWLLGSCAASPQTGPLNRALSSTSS
Parameters: expressed in transfected cells; host or cells: HEK cell membranes
Procedure: Radioligand Binding Assay
The receptor binding assay is performed in a final volume of 200 μL binding buffer [10 mM BES (pH 7.4), 1 mM EDTA, 10 mM manganese chloride, 0.01% BSA] and 1 nM [^3H]-PGD2 (Amersham Biosciences UK Ltd). Ligands are added in assay buffer containing a constant amount of DMSO (1% by volume). Total binding is determined using 1% by volume of DMSO in assay buffer and non-specific binding is determined using 10 μM of unlabeled PGD2 (Sigma). Human embryonic kidney (HEK) cell membranes (3.5 μg) expressing the CRTH2 receptor are incubated with 1.5 mg wheatgerm agglutinin SPA beads and 1 nM [^3H]-PGD2 (Amersham Biosciences UK Ltd) and the mixture incubated for 3 hours at room temperature. Bound [^3H]-PGD2 is detected using a Microbeta TRILUX liquid scintillation counter (Perkin Elmer). Compound IC50 value is determined using a 6-point dose response curve in duplicate with a semi-log compound dilution series. IC50 calculations are performed using Excel and XLfit (Microsoft), and this value is used to determine a Ki value for the test compound using the Cheng-Prusoff equation.

Ki [nM] | SMILES
< 100 | Cc1c(Cc2ccc(Cl)cc2Cl)c(OC(F)F)nc2c(F)ccc(OCC(=O)O)c12 [Example 51, [3-(2,4-dichlorobenzyl)-2-difluoromethoxy-8-fluoro-4-methylquinolin-5-yloxy]acetic Acid]
< 100 | CCc1nc2c(F)ccc(OCC(=O)O)c2c(OC(F)F)c1Cc1ccc(Cl)cc1Cl [Example 54, [3-(2,4-dichlorobenzyl)-4-difluoromethoxy-2-ethyl-8-fluoroquinolin-5-yloxy]acetic acid]
< 100 | Cc1c(Cc2ccc(Cl)cc2F)c(OC(F)F)nc2c(F)ccc(OCC(=O)O)c12 [Example 56, [3-(4-chloro-2-fluorobenzyl)-2-difluoromethoxy-8-fluoro-4-methylquinolin-5-yloxy]acetic Acid]
< 100 | Cc1c(Cc2ccc(Cl)cc2)c(OC(F)F)nc2c(Cl)ccc(OCC(=O)O)c12 [Example 57, [8-chloro-3-(4-chlorobenzyl)-2-difluoromethoxy-4-methylquinolin-5-yloxy]acetic Acid]
< 100 | CCc1nc2c(F)ccc(OCC(=O)O)c2c(OC(F)F)c1Cc1ccc(C(=O)N2CCCC2)cc1 [Example 65, {4-difluoromethoxy-2-ethyl-8-fluoro-3-[4-(pyrrolidine-1-carbonyl)benzyl]quinolin-5-yloxy}acetic Acid]
< 10000 | Cc1c(Cc2ccc(Cl)cc2)c(OC(F)F)nc2c(Cl)ccc(OC(C)(C)C(=O)O)c12 [Example 66, 2-[8-chloro-3-(4-chlorobenzyl)-2-difluoromethoxy-4-methylquinolin-5-yloxy]-2-methylpropionic Acid]
< 100 | Cc1c(Cc2ccc(Cl)cc2Cl)c(OC(F)F)nc2c(F)ccc(OC(C)C(=O)O)c12 (centres unmarked) [Example 67, 2-[3-(2,4-dichlorobenzyl)-2-difluoromethoxy-8-fluoro-4-methylquinolin-5-yloxy]propionic Acid]
< 100 | Cc1c(Cc2ccc(Cl)cc2Cl)c(OC(F)F)nc2c(F)ccc(O[C@@H](C)C(=O)O)c12 [Example 68, (S)-2-[3-(2,4-dichlorobenzyl)-2-difluoromethoxy-8-fluoro-4-methylquinolin-5-yloxy]propionic Acid]
< 100 | CCc1nc2c(Cl)ccc(OCC(=O)O)c2c(OC(F)F)c1Cc1ccc(C(=O)N2CCCC2)cc1 [Example 71, {8-chloro-4-difluoromethoxy-2-ethyl-3-[4-(pyrrolidine-1-carbonyl)benzyl]quinolin-5-yloxy}acetic Acid]
< 100 | CCc1nc2c(F)ccc(O[C@@H](C)C(=O)O)c2c(OC(F)F)c1Cc1ccc(C(=O)N2CCCC2)cc1Cl [Example 73, (S)-2-{3-[2-chloro-4-(pyrrolidine-1-carbonyl)benzyl]-4-difluoromethoxy-2-ethyl-8-fluoroquinolin-5-yloxy}propionic Acid]
< 100 | CCc1nc2c(F)ccc(O[C@@H](C)C(=O)O)c2c(OC(F)F)c1Cc1ccc(Cl)cc1Cl [Example 74, (S)-2-[3-(2,4-dichlorobenzyl)-4-difluoromethoxy-2-ethyl-8-fluoroquinolin-5-yloxy]propionic Acid]
< 100 | CCc1nc2c(F)ccc(O[C@@H](C)C(=O)O)c2c(OC)c1Cc1ccc(Cl)cc1Cl [Example 75, (S)-2-[3-(2,4-dichlorobenzyl)-2-ethyl-8-fluoro-4-methoxyquinolin-5-yloxy]propionic Acid]
< 100 | CCc1nc2c(F)ccc(OCC(=O)O)c2c(OC(F)F)c1Cc1ccc(C(=O)NC2CCC2)cc1Cl [Example 76, [3-(2-chloro-4-cyclobutylcarbamoylbenzyl)-4-difluoromethoxy-2-ethyl-8-fluoroquinolin-5-yloxy]acetic Acid]
< 100 | CCc1nc2c(F)ccc(O[C@@H](C)C(=O)O)c2c(OC(F)F)c1Cc1ccc(C(=O)NC2CCC2)cc1Cl [Example 77, (S)-2-[3-(2-chloro-4-cyclobutylcarbamoylbenzyl)-4-difluoromethoxy-2-ethyl-8-fluoroquinolin-5-yloxy]propionic acid]
< 10000 | Cc1cc(OCC(=O)O)c2c(C)c(Cc3ccc(Cl)cc3)cnc2c1 [Example 78, [3-(4-chlorobenzyl)-4,7-dimethylquinolin-5-yloxy]acetic Acid]
< 10000 | Cc1nc2cccc(OCC(=O)O)c2cc1Cc1ccc(Cl)cc1 [Example 79, [3-(4-chlorobenzyl)-2-methylquinolin-5-yloxy]acetic Acid]

The next lines start with the compound.

SMILES | Ki [nM]
Cc1c(Cc2ccc(F)cc2)c(OC(F)F)nc2c(F)ccc(OCC(=O)O)c12 [Example 52, [2-difluoromethoxy-8-fluoro-3-(4-fluorobenzyl)-4-methylquinolin-5-yloxy]acetic Acid] | < 100
CCc1nc2c(F)ccc(OCC(=O)O)c2c(OC(F)F)c1Cc1ccc(F)cc1F [Example 53, [3-(2,4-difluorobenzyl)-4-difluoromethoxy-2-ethyl-8-fluoroquinolin-5-yloxy]acetic Acid] | < 100
Cc1c(Cc2ccc(F)cc2F)c(OC(F)F)nc2c(F)ccc(OCC(=O)O)c12 [Example 55, [3-(2,4-difluorobenzyl)-2-difluoromethoxy-8-fluoro-4-methylquinolin-5-yloxy]acetic acid] | < 100
CCc1nc2c(F)ccc(OCC(=O)O)c2c(OC(F)F)c1Cc1ccc(F)cc1Cl [Example 58, [3-(2-chloro-4-fluorobenzyl)-4-difluoromethoxy-2-ethyl-8-fluoroquinolin-5-yloxy]acetic Acid] | < 100
Cc1c(Cc2ccc(F)cc2Cl)c(OC(F)F)nc2c(F)ccc(OCC(=O)O)c12 [Example 59, [3-(2-chloro-4-fluorobenzyl)-2-difluoromethoxy-8-fluoro-4-methylquinolin-5-yloxy]acetic Acid] | < 100
CCc1nc2c(F)ccc(OCC(=O)O)c2c(OC(F)F)c1Cc1ccc(S(=O)(=O)CC)cc1 [Example 60, [4-difluoromethoxy-3-(4-ethanesulfonylbenzyl)-2-ethyl-8-fluoroquinolin-5-yloxy]acetic Acid] | < 100
CCS(=O)(=O)c1ccc(Cc2c(OC(F)F)nc3c(F)ccc(OCC(=O)O)c3c2C)cc1 [Example 61, [2-difluoromethoxy-3-(4-ethanesulfonylbenzyl)-8-fluoro-4-methylquinolin-5-yloxy]acetic Acid] | < 100
CCc1nc2c(Cl)ccc(OCC(=O)O)c2c(OC(F)F)c1Cc1ccc(Cl)cc1F [Example 62, [8-chloro-3-(4-chloro-2-fluorobenzyl)-4-difluoromethoxy-2-ethylquinolin-5-yloxy]acetic Acid] | < 100
CCc1nc2c(F)ccc(OCC(=O)O)c2c(OC(F)F)c1Cc1ccc(Cl)cc1F [Example 63, [3-(4-chloro-2-fluorobenzyl)-4-difluoromethoxy-2-ethyl-8-fluoroquinolin-5-yloxy]acetic acid] | < 100
CCc1nc2c(F)ccc(OCC(=O)O)c2c(OC(F)F)c1Cc1ccc(S(=O)(=O)N2CCOCC2)cc1 [Example 64, {4-difluoromethoxy-2-ethyl-8-fluoro-3-[4-(morpholine-4-sulfonyl)benzyl]quinolin-5-yloxy}acetic acid] | < 100
Cc1c(Cc2ccc(Cl)cc2)c(OC(F)F)nc2c(Cl)ccc(OC(C)C(=O)O)c12 (centres unmarked) [Example 69, 2-[8-chloro-3-(4-chlorobenzyl)-2-difluoromethoxy-4-methylquinolin-5-yloxy]propionic Acid] | < 100
Cc1c(Cc2ccc(Cl)cc2Cl)c(OC(F)F)nc2c(F)ccc(O[C@H](C)C(=O)O)c12 [Example 70, (R)-2-[3-(2,4-dichlorobenzyl)-2-difluoromethoxy-8-fluoro-4-methylquinolin-5-yloxy]propionic Acid] | < 100
CCc1nc2c(F)ccc(OCC(=O)O)c2c(OC(F)F)c1Cc1ccc(C(=O)N2CCCC2)cc1Cl [Example 72, {3-[2-chloro-4-(pyrrolidine-1-carbonyl)benzyl]-4-difluoromethoxy-2-ethyl-8-fluoroquinolin-5-yloxy}acetic Acid] | < 100
